Test results from publication PMC5774841, “High-level production and purification in a functional state of an extrasynaptic gamma-aminobutyric acid type A receptor containing α4β3δ subunits” (PLoS ONE, 2018).
Where two headings read alike, the source gives them in different places.

How the values were obtained:
α4β3N–Flag–δ GABAAR = molecular target: T1, α4β3N–Flag–δ GABAAR (Homo sapiens, UniProt O14764+P28472+P48169); experiment: Whole-cell patch-clamp of GABA-elicited currents in the induced α4β3N-Flag-δ cell line; type: cell-based; conditions: for enhancement of maximum GABA elicited currents: drug 10 μM co-applied for 4 s, notch protocol
T1 construct: expressed in transfected cells
Method: HEK 293 cells stably expressing tetracycline inducible α4β3N-Flag-δ or N-Flag-α4β3 GABAA receptors were cultured on glass coverslips and induced with tetracycline (2μg/ml) 24 hours before recordings. The coverslips were placed in a recording chamber and perfused with the bath solution. Cells were voltage clamped at -50 mV using the patch clamp amplifier (Axopatch 200A, Molecular Devices, Sunnyvale, CA). GABAA receptor-mediated chloride currents from HEK cells were recorded using the whole-cell configuration of patch-clamp electrophysiology. Data was acquired using Clampex version 8.1 (Molecular Devices), digitized at 10 kHz and filtered at 5 kHz. Current traces were analyzed using Clampfit version 9 (Molecular Devices). Series resistance ranged from 0.5–4 MΩ and cell capacitances from 9–18 pF. Membrane-capacitance and series-resistance were compensated electronically by > 85% with a lag of 10 μ seconds. Drugs were delivered via a multichannel superfusion pipette coupled to a piezoelectric elements that switched superfusion solution in < 1 millisecond. The recording chamber was continuously perfused with the bath solution in mM: 145 NaCl, 5 KCl, 10 HEPES, 2 CaCl2, and 1 MgCl2, 10 glucose, pH 7.4 (pH adjusted with N-methyl glucosamine). The pipette solution for whole-cell recordings contained in mM: 140 KCl, 10 HEPES, 1 EGTA and 2 MgCl2 at pH 7.3 (pH adjusted with KOH). Open pipette resistances ranged from 1.6–3 M. Errors are standard deviation from at least three replicas.
(§1) Statistical analysis for electrophysiology was done using GraphPad Prism 6. […] Analysis of the [^3H]muscimol binding was carried out using Igor Pro 7 (WaveMetrics). For Western blotting, the ratio of the signal intensity of individual antibodies for each sample was determined. Pooled (weighted) mean and standard deviation was determined for each receptor and p value determined by two-tailed unpaired Student’s t-test, using GraphPad QuickCalcs software.

N–Flag–α4β3 receptors = molecular target: T2, N–Flag–α4β3 receptors (Homo sapiens, UniProt P28472+P48169); experiment: Whole-cell patch-clamp of GABA-elicited currents in the control N-Flag-α4β3 cell line; type: cell-based; conditions: drug 10 μM co-applied for 4 s, 10 mM GABA, notch protocol
T2 construct: expressed in transfected cells
Method: HEK 293 cells stably expressing tetracycline inducible α4β3N-Flag-δ or N-Flag-α4β3 GABAA receptors were cultured on glass coverslips and induced with tetracycline (2μg/ml) 24 hours before recordings. The coverslips were placed in a recording chamber and perfused with the bath solution. Cells were voltage clamped at -50 mV using the patch clamp amplifier (Axopatch 200A, Molecular Devices, Sunnyvale, CA). GABAA receptor-mediated chloride currents from HEK cells were recorded using the whole-cell configuration of patch-clamp electrophysiology. Data was acquired using Clampex version 8.1 (Molecular Devices), digitized at 10 kHz and filtered at 5 kHz. Current traces were analyzed using Clampfit version 9 (Molecular Devices). Series resistance ranged from 0.5–4 MΩ and cell capacitances from 9–18 pF. Membrane-capacitance and series-resistance were compensated electronically by > 85% with a lag of 10 μ seconds. […]
Statistical analysis for electrophysiology was done using GraphPad Prism 6. […] For Western blotting, the ratio of the signal intensity of individual antibodies for each sample was determined. Pooled (weighted) mean and standard deviation was determined for each receptor and p value determined by two-tailed unpaired Student’s t-test, using GraphPad QuickCalcs software.

[1] = molecular target: T3, α4β3N-Flag-δ GABAA receptor in native membranes (Homo sapiens, UniProt O14764+P28472+P48169); experiment: [3H]muscimol binding (filtration assay) to cell membranes
T3 construct: expressed in transfected cells
Method: Radioactive ligand binding assays were carried out as previously described, with the exception that GABAAR binding sites were assayed at 250 nM [^3H]muscimol because of this receptor’s higher affinity.
as §1
Fig 3 The binding isotherm of the agonist [^3H]muscimol to the α4β3N-Flag-δ GABAA receptor in native membranes and reconstituted into CHAPS/lipid micelles. Binding curves of [^3H]muscimol to α4β3N–Flag–δ GABAΑRs, both, in cell membranes (pmol/mg membrane protein) and after purification and reconstitution into micelles of 5 mM CHAPS and 200 μM DOPC:DOPS:Cholesterol in mole ratio 52:15:33 (pmol/mL). […] The displaceable binding and its standard deviation was determined by subtracting these two values and propagating errors at each total muscimol concentration. The curves were fitted by nonlinear least squares with weighting by standard deviation. These yielded apparent dissociation constants of 9.2 ± 0.6 and 35 ± 12 nM, respectively. The Bmax of the membranes was 22.6 ± 0.5 pmol/mg and for reconstituted receptors in micelles was 19 ± 3 pmol/mL. The Hill coefficients differed little from one (1.07 ± 0.3 and 0.90 ± 0.05 respectively).

[2] = molecular target: T4, α4β3N-Flag-δ GABAA receptor reconstituted into CHAPS/lipid micelles (Homo sapiens, UniProt O14764+P28472+P48169); experiment: [3H]muscimol binding to purified receptor reconstituted into CHAPS/lipid micelles
T4 construct: made in house; DDM solubilization, anti-Flag beads, elution with Flag peptide into CHAPS/lipid
Method: Cells with inducible expression of N-Flag-α4β3 and α4β3N-Flag-δ were induced with tetracycline (1 μg/ml final concentration, Life Technologies) and 5 mM sodium butyrate (Sigma-Aldrich, St. Louis, MO) for 24 hours and harvested in 10 ml per ten 15 cm–dishes of 10 mM HEPES, 1 mM EDTA (buffer A) freshly supplemented with protease inhibitors and 1 mM PMSF (final concentration) at 4°C with all subsequent purification procedures carried out at 4°C. Cells were homogenized with three cycles of 10 s each separated by 30 s intervals (Ultra Turrax T25, IKA Works, Wilmington, NC), followed by 20 strokes in Kontes-Duval glass tissue grinder. Homogenate was centrifuged at 43,000 x g for 30 min at 4°C and the pellet was resuspended in the buffer A and the entire procedure repeated. The resulting pellet was resuspended in the buffer A and a final homogenization carried out by aspiration with a 21-gauge needle and expulsed through 27-gauge needle. Concentration of total protein was assessed with the Pierce BCA protein assay kit (Pierce, Rockford, IL). Under constant stirring, the membrane fraction was solubilized over 30 min by dropwise addition of 30 mM DDM (Anatrace, Maumee, OH) in buffer B (50 mM Tris/HCl, 150 mM NaCl, 2 mM CaCl2, 5 mM KCl, 5 mM MgCl2, 4 mM EDTA, pH 7.5) and 10% glycerol, supplemented with protease inhibitors and 1 mM PMSF, with the volume adjusted to produce an effective protein concentration of 1 mg/ml. Following an additional 2 hours of solubilization, the solution was centrifuged at 45,000 x g for 30 min at 4°C. Insoluble material in the pellet was discarded and the supernatant was stored in liquid nitrogen overnight.
After washing once with buffer B, 2 ml of Flag beads (Sigma-Aldrich) were pre-treated overnight at 4°C on polypropylene columns (Qiagen, Hilden, Germany) with 1.5 ml of 10 mg/ml poly-d-Lysine hydrobromide with gentle agitation. On the following day, beads were washed three times with six 2–ml volumes of buffer B with 10% glycerol and incubated with solubilized membrane fractions with gentle agitation for 2 hours. Once transferred back into propylene columns, beads were washed once with wash buffer (17 mM CHAPS, 8.5 mM asolectin in buffer B with 10% glycerol, homogenized with glass grinder and sonicated for 10 min), equilibrated with the same buffer for 1 hour with agitation and washed again. Two more washes with elution buffer (5 mM CHAPS, 200 μM asolectin in buffer B with 10% glycerol, prepared as with wash buffer) were performed prior to elution of receptors by incubation with two x 2–ml of elution buffer supplemented with 0.15 mg/ml of Flag peptide (Sigma-Aldrich) for 2 hours with gentle rocking (elution 1). Second elution (elution 2) and another overnight incubation with 2–ml (elution 3) followed.
[…] […] […] […] The curves were fitted by nonlinear least squares with weighting by standard deviation. These yielded apparent dissociation constants of 9.2 ± 0.6 and 35 ± 12 nM, respectively. The Bmax of the membranes was 22.6 ± 0.5 pmol/mg and for reconstituted receptors in micelles was 19 ± 3 pmol/mL. The Hill coefficients differed little from one (1.07 ± 0.3 and 0.90 ± 0.05 respectively).

α4β3γ2 receptors = conditions: cited from earlier work
α1β3δ GABAARs = system: α1β3δ GABAARs; set-up: method as in PMID 27493204; conditions: cited from earlier work; for degree of desensitization: in 4 seconds
α4β3δ receptors = conditions: cited from earlier work
[3] = system: concatenated subunits β3-α1-δ/β3-α1; conditions: cited from earlier work
[4] = 2 nM [3H]muscimol, reconstituted
[5] = after 8.5 ms pulse of 100 μM GABA, two exponentials
[6] = linear fit of activation rate up to ~10 μM GABA
[7] = CHAPS/DOPC:DOPS:Cholesterol micelles

T1 sequence (P48169 36-554): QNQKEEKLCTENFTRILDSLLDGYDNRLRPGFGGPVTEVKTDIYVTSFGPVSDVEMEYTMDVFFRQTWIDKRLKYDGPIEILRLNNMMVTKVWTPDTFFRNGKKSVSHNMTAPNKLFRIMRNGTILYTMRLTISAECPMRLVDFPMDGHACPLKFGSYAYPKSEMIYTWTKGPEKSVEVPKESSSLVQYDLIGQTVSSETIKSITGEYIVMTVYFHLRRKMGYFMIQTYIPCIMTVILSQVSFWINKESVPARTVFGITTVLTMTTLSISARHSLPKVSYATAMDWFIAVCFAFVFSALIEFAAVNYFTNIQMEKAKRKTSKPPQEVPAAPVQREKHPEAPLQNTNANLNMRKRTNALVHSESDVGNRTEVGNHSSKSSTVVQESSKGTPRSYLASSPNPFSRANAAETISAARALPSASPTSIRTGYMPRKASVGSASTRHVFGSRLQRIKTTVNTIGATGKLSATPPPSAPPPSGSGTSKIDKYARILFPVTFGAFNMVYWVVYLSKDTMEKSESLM
T1 sequence (P28472 26-473 isoform P28472-2 limits assumed): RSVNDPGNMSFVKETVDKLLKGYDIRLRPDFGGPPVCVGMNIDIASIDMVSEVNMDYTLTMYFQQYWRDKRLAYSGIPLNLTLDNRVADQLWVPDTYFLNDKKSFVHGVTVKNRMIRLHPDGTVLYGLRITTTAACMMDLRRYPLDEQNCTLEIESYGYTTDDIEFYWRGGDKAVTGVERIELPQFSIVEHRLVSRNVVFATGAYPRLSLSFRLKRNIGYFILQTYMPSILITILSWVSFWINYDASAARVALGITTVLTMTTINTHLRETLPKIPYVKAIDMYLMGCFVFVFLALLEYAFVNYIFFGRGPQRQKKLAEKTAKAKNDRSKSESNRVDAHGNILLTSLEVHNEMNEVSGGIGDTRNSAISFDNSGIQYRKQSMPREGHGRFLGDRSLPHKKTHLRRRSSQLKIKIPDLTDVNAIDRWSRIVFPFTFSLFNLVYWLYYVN
T1 sequence (O14764 25-452): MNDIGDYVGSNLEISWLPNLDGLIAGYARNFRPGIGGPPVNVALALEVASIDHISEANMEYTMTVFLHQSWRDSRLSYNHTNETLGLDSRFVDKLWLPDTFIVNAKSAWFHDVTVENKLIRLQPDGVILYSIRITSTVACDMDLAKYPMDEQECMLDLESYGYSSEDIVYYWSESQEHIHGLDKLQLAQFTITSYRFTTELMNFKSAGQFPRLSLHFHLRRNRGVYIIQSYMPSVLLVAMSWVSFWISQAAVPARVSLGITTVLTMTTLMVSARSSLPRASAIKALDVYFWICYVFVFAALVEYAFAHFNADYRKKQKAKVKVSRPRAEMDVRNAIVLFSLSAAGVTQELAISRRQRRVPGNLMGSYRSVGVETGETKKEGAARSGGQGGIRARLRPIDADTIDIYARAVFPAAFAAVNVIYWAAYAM
T4 sequence (P48169 36-554): as the sequence (P48169 36-554) above
T4 sequence (P28472 26-473 isoform P28472-2 limits assumed): as the sequence (P28472 26-473 isoform P28472-2 limits assumed) above
T4 sequence (O14764 25-452): as the sequence (O14764 25-452) above
T3 sequence (P48169 36-554): as the sequence (P48169 36-554) above
T3 sequence (P28472 26-473 isoform P28472-2 limits assumed): as the sequence (P28472 26-473 isoform P28472-2 limits assumed) above
T3 sequence (O14764 25-452): as the sequence (O14764 25-452) above
T2 sequence (P48169 36-554): as the sequence (P48169 36-554) above
T2 sequence (P28472 26-473 isoform P28472-2 limits assumed): as the sequence (P28472 26-473 isoform P28472-2 limits assumed) above

With `O=C(Nc1c(-c2cccs2)nc2ccccn12)c1ccc(Cl)cc1` [DS2] the “enhancement of maximum GABA elicited currents” value (α4β3N–Flag–δ GABAAR; 10 mM GABA) was 230 ± 63%, the “enhancement of maximum GABA elicited currents” value (N–Flag–α4β3 receptors) was 12 ± 7% and the “Hill coefficient of modulation of [3H]muscimol binding” value ([1]; 2 nM [3H]muscimol, membranes) was 0.9 ± 0.2. For the same compound, the “maximum modulation of [3H]muscimol binding” value ([1]; 2 nM [3H]muscimol, membranes) was 139 ± 4%, the EC50 ([1]; 2 nM [3H]muscimol, native membranes, read-out: EC50 of modulation of [3H]muscimol binding) was 2 ± 0.7 µM and the “enhancement of displaceable [3H]muscimol binding” value ([1]; DS2 30 μM, [3H]muscimol 2 nM, membranes) was 142 ± 12%. For the same compound, the EC50 ([2]; 2 nM [3H]muscimol, CHAPS/PC:PS:Cholesterol micelles, read-out: EC50 of modulation of [3H]muscimol binding) was 2.3 ± 0.8 µM, the “Hill coefficient of modulation of [3H]muscimol binding” value [2, 4] was 1.2 ± 0.5 and the “maximum modulation of [3H]muscimol binding” value [2, 4] was 132 ± 4%. For the same compound, the “enhancement of displaceable [3H]muscimol binding” value ([2]; DS2 30 μM, [3H]muscimol 2 nM, CHAPS/lipid micelles) was 128 ± 11%.
For `NCCCC(=O)O` [GABA, γ-aminobutyric acid], the “activation time constant τ” value (α4β3N–Flag–δ GABAAR; 0.1 μM GABA) was 165 ± 20 ms, the “activation time constant τ” value (α4β3N–Flag–δ GABAAR; 100 μM GABA) was 6 ± 1 ms and the “fraction of available channels opened (efficacy of GABA)” value (α4β3N–Flag–δ GABAAR; 10 mM GABA, assumes 10 mM GABA + 10 μM etomidate opens 100% of channels) was 17 ± 6%. For the same compound, the “desensitization time constant τ” value (α4β3N–Flag–δ GABAAR; 8-sec exposure to GABA 1–100 μM, all concentrations averaged) was 2.6 ± 0.9 s, the “fraction of total current decay amplitude occupied by fastest phase” value (α4β3N–Flag–δ GABAAR; after 8.5 ms pulse of 100 μM GABA) was 76 ± 12% and the “deactivation time constant, fastest phase” value (α4β3N–Flag–δ GABAAR; [5]) was 175 ± 50 ms. The “deactivation time constant, slow phase” value (α4β3N–Flag–δ GABAAR; [5]) was 1100 ± 440 ms, the degree of desensitization (α4β3N–Flag–δ GABAAR; in 4 seconds at 100 μM GABA) was ~ 70% and the “k+1 apparent forward GABA binding rate” value (α4β3N–Flag–δ GABAAR; [6]) was 5.7 ± 0.2 x 10^6 s^–1M^–1. For the same compound, the “k–1 apparent reverse GABA binding rate” value (α4β3N–Flag–δ GABAAR; [6]) was 5 ± 1 s^–1, the “Hill coefficient of GABA concentration-response curve” value (α4β3N–Flag–δ GABAAR; peak currents normalized to 10 mM GABA) was 1.5 ± 0.24 and the “k+1 apparent forward GABA binding rate” value (α4β3γ2 receptors) was 6 x 10^6 s^–1M^–1. The “10–90% rise times” value (α1β3δ GABAARs; 1 mM GABA, depending on the construct ratio) was 4 to 22 ms, the “deactivation rate (time)” value (α1β3δ GABAARs; construct ratio 1:1:0.3) was ~ 170 ms and the degree of desensitization (α1β3δ GABAARs; much lower transfection ratios) was 40–70%. For the same compound, the degree of desensitization (α1β3δ GABAARs; transfection ratios similar to the authors') was “little desensitization”, the “deactivation rate (time)” value (α1β3δ GABAARs; varied with ratio of constructs transfected) was 100 to 200 ms and the “desensitization time constant τ” value (α4β3δ receptors; 100 μM GABA) was 4.8 s. The rise time (α4β3δ receptors; 100 μM GABA) was ~ 100 ms, the deactivation time constant (α4β3δ receptors; lower time resolution perfusion system) was ~ 400 ms and the desensitization time constant ([3]; 1 mM GABA) was 4.7 s. For the same compound, the degree of desensitization ([3]; after 4 s at 1 mM GABA) was ~ 40% and the deactivation time constant [3] was ~ 50 ms.
In the case of `NCc1cc(=O)[nH]o1` [[^3H]muscimol], the “Bmax (sites per mg of membrane protein)” value ([1]; cell membranes) is reported as 22.6 ± 0.5 pmol/mg, the “apparent affinity relative to α1β3γ2 GABAAR cell line” value ([1]; higher than in previously developed α1β3γ2 cell line (refs 13, 26)) is reported as 5 fold and the EC50 ([1]; read-out: apparent dissociation constant (EC50 of binding isotherm)) is reported as 0.0092 ± 0.0006 µM. For the same compound, the Kd ([2]; 5 mM CHAPS and 200 μM DOPC:DOPS:Cholesterol 52:15:33 micelles, read-out: apparent dissociation constant) was 0.035 ± 0.012 µM, the Bmax [2, 7] was 19 ± 3 pmol/mL and the “Hill coefficient of binding isotherm” value [2, 7] was 0.90 ± 0.05.
With `CCOC(=O)c1cncn1[C@H](C)c1ccccc1` [etomidate] the “enhancement of maximum GABA elicited currents” value (α4β3N–Flag–δ GABAAR; 10 mM GABA) was 540 ± 235% and the “enhancement of maximum GABA elicited currents” value (N–Flag–α4β3 receptors) was 490 ± 84%.
With picrotoxin the “fraction of spontaneously open receptors (picrotoxin-inhibited current)” value (α4β3N–Flag–δ GABAAR; 2 mM picrotoxin for 8 s, relative to current with 10 mM GABA + 10 μM etomidate) was “about 3.2 ± 0.6%”.
